The values that follow come from patent publication US11534443B2, “Quinazoline compounds, preparation method, use, and pharmaceutical composition thereof” (INSTITUTE OF MATERIA MEDICA, CHINESE ACADEMY OF MEDICAL …, priority 2016, dated 2022).

Test [1] concerns the target PI3Kα (Homo sapiens (Human), UniProt P42336). Put plainly: Biochemical evaluation of activity of PI3Kα (Kinase-Glo luminescence kinase assay). The settings on record: 25 μM ATP, 50 μM PIP2, 1 h at room temperature. The method in brief:
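Inhibition of PI3Kα was measured in vitro with a luciferase-based Kinase-Glo™ luminescence readout in white 384-well plates at room temperature. Compound diluted 25-fold in buffer (50 mM Hepes pH 7.5, 3 mM MgCl2, 100 mM NaCl, 1 mM EGTA, 0.03% CHAPS, 2 mM DTT) was mixed with enzyme, then PIP2/ATP substrate was added. Percent inhibition used enzyme-free and DMSO controls; IC50 was fitted with XLfit.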
Background: In Kinase-Glo more light means more ATP remaining.

In test [2] the test system is human lung cancer cell NCI-H460. The experiment in a line: Tumor cell viability by MTT assay. To be noted: Homo sapiens, NCI-H460, 96 h. The test is classed as cell-based. The method in brief:
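NCI-H460 cells exposed to six to nine compound concentrations (DMSO below 0.2%, triplicate wells) for 96 hours at 37° C, 5% CO2. MTT added for 4 hours, formazan dissolved in DMSO and OD read at 570 nm against DMSO-treated controls.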
(Formazan colour is commonly taken as a measure of viable cells.)

Test [3] deals with human lung cancer NCI-H460 subcutaneous xenografts. The experiment in a line: Xenograft efficacy in nude mice, NCI-H460. The test is classed as in vivo. The settings on record: for Growth inhibition: NCI-H460 xenograft, 16 days of dosing. As for the experimental part: (§1) Human lung cancer NCI-H460 cells were collected under aseptic conditions, and the cell density was adjusted to 1×10^6 cells/mL with sterile saline, 0.2 mL of which was implanted into the back of the nude mice. When the tumor grew to a diameter of about 1 cm, it was removed under septic condition and cut into pieces of 1 mm×1 mm which was implanted into the back of the nude mice. When the tumor grew to 100-300 mm^3 after 6 days, the animals were randomly divided into groups and administration was started (marked as Day 1). The test compound was administered orally every day. Body weight was measured twice a week and the length and width of the tumor were measured with a vernier caliper. After 16 days of dosing, the nude mice were sacrificed by cervical dislocation and the tumor issues were exfoliated, weighed and photographed. Finally, the tumor inhibitory rate was calculated. The antitumor efficacy was evaluated by the tumor inhibitory rate. The results were shown in Table 3, Table 4, FIG. 1 and FIG. 2.
(§2) The tumor volume was calculated as follows: Tumor volume=(a×b^2)/2, where a and b represented the length and width of the tumor.
(§3) The percentage of tumor growth inhibition was calculated as follows: Tumor growth inhibition (%)=(1−T/C)×100, where T was the final volume of the tumor in the test compound group and C was the final volume of the tumor in the solvent control group.

Test [4] concerns human gastric cancer HGC-27 subcutaneous xenografts. Put plainly: Xenograft efficacy in nude mice, HGC-27. In kind it is in vivo. The procedure: as §1, with “gastric” for “lung”, “HGC-27” for “NCI-H460”, “When the tumor grew to a diameter of about 1 cm, it was removed under septic condition and cut into pieces of 1 mm×1 mm which was implanted into the back of the nude mice.” left out, “0).” for “1).”, “20” for “16”, “rate.” for “rate. The results were shown in Table 3, Table 4, FIG. 1 and FIG. 2.”
as §2, §3
The percentage of tumor regression was calculated by 100×(final tumor volume-initial tumor volume)/initial tumor volume.

PI3Kα, sequence (P42336 whole entry): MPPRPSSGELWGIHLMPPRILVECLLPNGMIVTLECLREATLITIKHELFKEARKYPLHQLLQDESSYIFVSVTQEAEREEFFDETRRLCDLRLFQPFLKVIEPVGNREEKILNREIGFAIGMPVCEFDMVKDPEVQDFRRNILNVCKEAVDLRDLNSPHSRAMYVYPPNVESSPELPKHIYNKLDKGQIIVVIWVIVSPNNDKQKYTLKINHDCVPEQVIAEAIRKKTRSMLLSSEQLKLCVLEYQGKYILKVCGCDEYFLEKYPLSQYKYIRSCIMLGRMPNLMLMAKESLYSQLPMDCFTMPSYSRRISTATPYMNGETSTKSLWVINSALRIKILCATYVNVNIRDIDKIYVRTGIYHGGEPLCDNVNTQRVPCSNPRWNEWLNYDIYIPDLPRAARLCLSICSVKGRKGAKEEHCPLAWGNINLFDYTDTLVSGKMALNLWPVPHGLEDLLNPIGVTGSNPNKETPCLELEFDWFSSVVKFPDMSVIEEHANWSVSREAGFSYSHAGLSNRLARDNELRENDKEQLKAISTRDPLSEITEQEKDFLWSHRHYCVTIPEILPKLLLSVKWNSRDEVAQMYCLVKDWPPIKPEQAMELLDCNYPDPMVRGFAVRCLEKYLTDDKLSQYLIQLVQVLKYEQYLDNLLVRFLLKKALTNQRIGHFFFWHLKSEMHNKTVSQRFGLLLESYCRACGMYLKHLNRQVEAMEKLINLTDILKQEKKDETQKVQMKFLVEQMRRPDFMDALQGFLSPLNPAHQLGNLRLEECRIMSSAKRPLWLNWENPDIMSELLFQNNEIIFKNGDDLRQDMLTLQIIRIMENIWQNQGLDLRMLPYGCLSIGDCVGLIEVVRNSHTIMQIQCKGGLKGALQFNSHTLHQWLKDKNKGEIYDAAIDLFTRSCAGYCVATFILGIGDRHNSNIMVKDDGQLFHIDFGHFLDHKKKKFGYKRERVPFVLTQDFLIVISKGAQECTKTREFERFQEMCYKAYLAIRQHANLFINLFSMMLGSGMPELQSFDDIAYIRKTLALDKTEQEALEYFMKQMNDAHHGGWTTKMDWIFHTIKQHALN
PI3Kα, sequence (P27986 whole entry partner): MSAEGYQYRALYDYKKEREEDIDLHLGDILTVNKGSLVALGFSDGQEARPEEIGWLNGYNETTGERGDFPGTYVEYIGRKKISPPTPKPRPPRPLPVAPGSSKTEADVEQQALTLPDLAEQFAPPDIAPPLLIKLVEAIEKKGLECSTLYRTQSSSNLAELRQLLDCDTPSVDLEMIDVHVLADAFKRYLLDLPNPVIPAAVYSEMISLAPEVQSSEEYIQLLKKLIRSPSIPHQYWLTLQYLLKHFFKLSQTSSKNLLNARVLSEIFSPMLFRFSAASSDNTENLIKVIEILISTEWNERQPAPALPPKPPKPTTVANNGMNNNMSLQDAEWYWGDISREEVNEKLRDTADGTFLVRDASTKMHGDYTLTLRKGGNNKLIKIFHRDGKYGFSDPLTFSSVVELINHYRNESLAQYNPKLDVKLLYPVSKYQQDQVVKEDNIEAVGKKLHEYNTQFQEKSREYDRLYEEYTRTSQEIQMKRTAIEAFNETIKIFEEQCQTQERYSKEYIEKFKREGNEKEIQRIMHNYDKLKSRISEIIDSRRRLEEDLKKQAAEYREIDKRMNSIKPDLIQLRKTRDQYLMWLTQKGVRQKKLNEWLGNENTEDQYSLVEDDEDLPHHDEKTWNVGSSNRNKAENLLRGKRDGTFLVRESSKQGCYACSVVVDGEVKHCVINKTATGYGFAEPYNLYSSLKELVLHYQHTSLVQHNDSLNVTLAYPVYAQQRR

One may read the IC50 as the point on the concentration scale where inhibition reaches its midpoint. Regarding `COc1ncc(-c2cc(O[C@@H]3CCOC3)c3nc(N)nc(C)c3c2)cc1NS(=O)(=O)c1ccc(F)cc1F` [Example 9, (R)—N-(5-(2-amino-4-methyl-8-((tetrahydrofuran-3-yl)oxy)quinazolin-6-yl)-2-methoxypyridin-3-yl)-2,4-difluorobenzenesulfonamide], the IC50 in test [1] worked out at 0.86 nM; in test [2] it was 93 nM. Also, the “inhibitory effect against growth of NCI-H460 subcutaneous xenografts (in words)” value in test [3] is reported as “significant inhibitory effects”. Further, the Growth inhibition in test [3] (5 mg/kg/day orally) was found to be 39.2%; in test [3] (10 mg/kg/day orally), 56.3%; in test [3] (20 mg/kg/day orally), 77.0%.

`CNc1nc(C)c2cc(-c3cnc(OC)c(NS(=O)(=O)c4ccc(F)cc4F)c3)cc(O[C@@H]3CCOC3)c2n1` [Example 32, (R)—N-(2-methoxy-5-(4-methyl-2-(methylamino)-8-((tetrahydrofuran-3-yl)oxy)quinazolin-6-yl)pyridin-3-yl)-2,4-difluorobenzenesulfonamide] registered a half-inhibitory concentration (IC50) in test [1] of 0.82 nM. In addition, the “inhibitory effect on growth of HGC-27 subcutaneous xenografts (in words)” value in test [4] is on record as “significant inhibitory effect”. In test [4] (HGC-27 xenograft, 5 mg/kg/day orally, 20 days of dosing), this compound showed a Growth inhibition of 76.9%. The Regression in test [4] (HGC-27 xenograft, 10 mg/kg/day orally, 20 days of dosing) came out at 70.5%.

Consider `COc1ncc(-c2cc(OC3CCOCC3)c3ncnc(C)c3c2)cc1NS(=O)(=O)c1ccc(F)cc1F` [Example 44, N-(2-methoxy-5-(4-methyl-8-((tetrahydro-2H-pyran-4-yl)oxy)quinazolin-6-yl)pyridin-3-yl)-2,4-difluorobenzenesulfonamide], for which the IC50 was 0.65 nM in test [1] and 29 nM in test [2]. Further, the “inhibitory effect against growth of NCI-H460 subcutaneous xenografts (in words)” value in test [3] is recorded as “significant inhibitory effects”. In test [3] (1 mg/kg/day orally), the Growth inhibition came out at 60.3%.

With `COc1ncc(-c2cc(OCC3(C)COC3)c3ncnc(C)c3c2)cc1NS(=O)(=O)c1ccc(F)cc1F` [Example 59, N-(2-methoxy-5-(4-methyl-8-((3-methyloxetan-3-yl)methoxy)quinazolin-6-yl)pyridin-3-yl)-2,4-difluoro-benzenesulfonamide], the results for the IC50 in test [1] and in test [2] were 0.74 nM and 17 nM, respectively.

For `COc1ncc(-c2cc(OCC3CCCO3)c3ncnc(C)c3c2)cc1NS(=O)(=O)c1ccc(F)cc1F` (centres unmarked) [Example 60, N-(2-methoxy-5-(4-methyl-8-((tetrahydrofuran-2-yl)methoxy)quinazolin-6-yl)pyridin-3-yl)-2,4-difluorobenzenesulfonamide], the results for the concentration for half-maximal inhibition (IC50) in test [1] and in test [2] were 1.3 nM and 240 nM, respectively.

As for `COc1ncc(-c2cc(OCC3CCOC3)c3ncnc(C)c3c2)cc1NS(=O)(=O)c1ccc(F)cc1F` (centres unmarked) [Example 61, N-(2-methoxy-5-(4-methyl-8-((tetrahydrofuran-3-yl)methoxy)quinazolin-6-yl)pyridin-3-yl)-2,4-difluorobenzenesulfonamide], the IC50 is 1 nM in test [1] and 45 nM in test [2].

For the compound `COc1ncc(-c2cc(OC3CCN(C)CC3)c3ncnc(C)c3c2)cc1NS(=O)(=O)c1ccc(F)cc1F` [Example 62, N-(2-methoxy-5-(4-methyl-8-((1-methylpiperidin-4-yl)oxy)quinazolin-6-yl)pyridin-3-yl)-2,4-difluoro-benzenesulfonamide], the IC50 is 2.5 nM in test [1] and 260 nM in test [2].

Regarding `COc1ncc(-c2cc(OCCN3CCCC3)c3ncnc(C)c3c2)cc1NS(=O)(=O)c1ccc(F)cc1F` [Example 63, N-(2-methoxy-5-(4-methyl-8-(2-(pyrrolidin-1-yl)ethoxy)quinazolin-6-yl)pyridin-3-yl)-2,4-difluorobenzenesulfonamide], the IC50 in test [1] stood at 10 nM; in test [2], 2100 nM.

On to `COc1ncc(-c2cc(OCCn3cccn3)c3ncnc(C)c3c2)cc1NS(=O)(=O)c1ccc(F)cc1F` [Example 64, N-(5-(8-(2-(1H-pyrazol-1-yl)ethoxy)-4-methylquinazolin-6-yl)-2-methoxypyridin-3-yl)-2,4-difluorobenzenesulfonamide], for which the IC50 turned out to be 1.5 nM in test [1] and 390 nM in test [2].

Turning to `COc1ncc(-c2cc(OCC3CCN(C)CC3)c3ncnc(C)c3c2)cc1NS(=O)(=O)c1ccc(F)cc1F` [Example 66, N-(2-methoxy-5-(4-methyl-8-((1-methylpiperidin-4-yl)methoxy)quinazolin-6-yl)pyridin-3-yl)-2,4-difluoro-benzenesulfonamide], the IC50 is 1.7 nM in test [1] and 230 nM in test [2].

Regarding `COc1ncc(-c2cc(OCCN(C)C)c3ncnc(C)c3c2)cc1NS(=O)(=O)c1ccc(F)cc1F` [Example 67, N-(5-(8-(2-(dimethylamino)ethoxy)-4-methylquinazolin-6-yl)-2-methoxypyridin-3-yl)-2,4-difluorobenzenesulfonamide], the IC50 was 6.1 nM in test [1] and 3500 nM in test [2].

For `COc1ncc(-c2cc(OCC3CC3)c3ncnc(C)c3c2)cc1NS(=O)(=O)c1ccc(F)cc1F` [Example 68, N-(5-(8-(cyclopropylmethoxy)-4-methylquinazolin-6-yl)-2-methoxypyridin-3-yl)-2,4-difluorobenzenesulfonamide], the IC50 in test [1] is 1.6 nM; in test [2], 340 nM.

For `COc1ncc(-c2cc(OC(C)C)c3ncnc(C)c3c2)cc1NS(=O)(=O)c1ccc(F)cc1F` [Example 69, N-(5-(8-isopropoxy-4-methylquinazolin-6-yl)-2-methoxypyridin-3-yl)-2,4-difluorobenzenesulfonamide], the values for the IC50 in test [1] and in test [2] were 2.2 nM and 50 nM, respectively.

Turning to `COc1ncc(-c2cc(OC3CCC3)c3ncnc(C)c3c2)cc1NS(=O)(=O)c1ccc(F)cc1F` [Example 70, N-(5-(8-cyclobutoxy-4-methylquinazolin-6-yl)-2-methoxypyridin-3-yl)-2,4-difluorobenzenesulfonamide], the values for the IC50 in test [1] and in test [2] were 0.9 nM and 22 nM, respectively.

For `COc1ncc(-c2cc(OC(F)F)c3ncnc(C)c3c2)cc1NS(=O)(=O)c1ccc(F)cc1F` [Example 71, N-(5-(8-(difluoromethoxy)-4-methylquinazolin-6-yl)-2-methoxypyridin-3-yl)-2,4-difluorobenzenesulfonamide], the concentration for half-maximal inhibition (IC50) stood at 1.9 nM in test [1] and 1000 nM in test [2].

Turning to `COc1ncc(-c2cc(OC)c3ncnc(C)c3c2)cc1NS(=O)(=O)c1ccc(F)cc1F` [Example 72, N-(2-methoxy-5-(8-methoxy-4-methylquinazolin-6-yl)pyridin-3-yl)-2,4-difluorobenzenesulfonamide], the IC50 in test [1] came to 0.7 nM; in test [2], 500 nM.

On to `Cc1ncnc2c(OC3CCOCC3)cc(-c3cnc(Cl)c(NS(=O)(=O)c4ccc(F)cc4)c3)cc12` [Example 73, N-(2-chloro-5-(4-methyl-8-((tetrahydro-2H-pyran-4-yl)oxy)quinazolin-6-yl)pyridin-3-yl)-4-fluorobenzenesulfonamide], for which the figures for the half-inhibitory concentration (IC50) in test [1] and in test [2] were 1.3 nM and 740 nM, respectively.

On to `Cc1ncc(-c2cc(OC3CCOCC3)c3ncnc(C)c3c2)cc1NS(=O)(=O)c1ccc(F)cc1F` [Example 74, N-(2-methyl-5-(4-methyl-8-((tetrahydro-2H-pyran-4-yl)oxy)quinazolin-6-yl)pyridin-3-yl)-2,4-difluorobenzenesulfonamide], for which the concentration for half-maximal inhibition (IC50) in test [1] is 1.1 nM; in test [2], 870 nM.
